From the supplement of paper PMC8671470
± gives the standard deviation of the averaged measurements.

system: HL-60; test: cell viability (% survival relative to DMSO control); higher = less cytotoxic; conditions: 1 µM; 72 h; co-treatment: GSK2194069 100 nM
How it was run: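 Area under the curve, where listed, was derived from four-parameter log-logistic fits with drc and PharmacoGx. These fits used CellTiter-Glo viability from HL-60 cells in RPMI 1640 with 10% FBS, normalised to DMSO wells and wells holding 10 μM proteasome inhibitor. The full library was rescreened on 384-well plates in duplicate at five tenfold concentrations, 1–10,000 nM, with DMSO or 100 nM of one of three metabolic inhibitors, for 72 h at 37 °C, 5% CO2.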

| SMILES | cell viability |
| --- | --- |
| O=c1c(-c2ccc(O)cc2)coc2cc(O[C@@H]3O[C@H](CO)[C@@H](O)[C@H](O)[C@H]3O)ccc12 [Daidzin] | 98.7 ± 2.4% |
| CCN(CC)C(=S)SSC(=S)N(CC)CC [Disulfiram] | 93.1 ± 2.8% |
| c1cc(-c2cnn3cc(-c4ccc(OCCN5CCCCC5)cc4)cnc23)ccn1 [Dorsomorphin] | 105 ± 5.1% |
| C[C@H]1c2cccc(O)c2C(=O)C2C(=O)[C@]3(O)C(=O)C(C(N)=O)C(=O)[C@@H](N(C)C)[C@@H]3[C@@H](O)[C@@H]21 (stereo not given in full) [Doxycycline] | 94.8 ± 6.5% |

same assay, conditions: 1 µM; 72 h; co-treatment: pictilisib 100 nM

| SMILES | cell viability |
| --- | --- |
| Cc1c(Cl)cccc1S(=O)(=O)Nc1nc(CC(=O)N2CCN(C)CC2)cs1 [BVT-2733] | 87.2 ± 13% |
| CCc1oc2ccccc2c1C(=O)c1cc(Br)c(O)c(Br)c1 [Benzbromarone] | 118 ± 10% |
| CCOC(=O)c1sc(NC(=O)c2ccco2)c(SC#N)c1C [CBR-5884] | 101 ± 11% |
| O=C(/C=C/c1ccc(O)c(O)c1)OCCc1ccccc1 [Caffeic acid phenethyl ester] | 81.5 ± 5.5% |
| CCCCCOC(=O)Nc1nc(=O)n([C@@H]2O[C@H](C)[C@@H](O)[C@H]2O)cc1F [Capecitabine] | 108 ± 4.2% |
| Cc1ccc(-c2cc(C(F)(F)F)nn2-c2ccc(S(N)(=O)=O)cc2)cc1 [Celecoxib] | 122 ± 8.5% |
| O=c1c(-c2ccc(O)cc2)coc2cc(O[C@@H]3O[C@H](CO)[C@@H](O)[C@H](O)[C@H]3O)ccc12 [Daidzin] | 67.6 ± 43% |
| CCN(CC)C(=S)SSC(=S)N(CC)CC [Disulfiram] | 71.25 ± 0.41% |
| c1cc(-c2cnn3cc(-c4ccc(OCCN5CCCCC5)cc4)cnc23)ccn1 [Dorsomorphin] | 82.3 ± 2.3% |
| C[C@H]1c2cccc(O)c2C(=O)C2C(=O)[C@]3(O)C(=O)C(C(N)=O)C(=O)[C@@H](N(C)C)[C@@H]3[C@@H](O)[C@@H]21 (stereo not given in full) [Doxycycline] | 102 ± 3.8% |

same assay, conditions: 10 µM; 72 h; co-treatment: AZD3965 100 nM

| SMILES | cell viability |
| --- | --- |
| Cc1c(Cl)cccc1S(=O)(=O)Nc1nc(CC(=O)N2CCN(C)CC2)cs1 [BVT-2733] | 99.4 ± 1.7% |
| CCc1oc2ccccc2c1C(=O)c1cc(Br)c(O)c(Br)c1 [Benzbromarone] | 99.81 ± 0.45% |
| CCOC(=O)c1sc(NC(=O)c2ccco2)c(SC#N)c1C [CBR-5884] | 102 ± 6.6% |
| O=C(/C=C/c1ccc(O)c(O)c1)OCCc1ccccc1 [Caffeic acid phenethyl ester] | 27.4 ± 6.4% |
| CCCCCOC(=O)Nc1nc(=O)n([C@@H]2O[C@H](C)[C@@H](O)[C@H]2O)cc1F [Capecitabine] | 96.6 ± 4.8% |
| Cc1ccc(-c2cc(C(F)(F)F)nn2-c2ccc(S(N)(=O)=O)cc2)cc1 [Celecoxib] | 114.8 ± 0.68% |
| O=c1c(-c2ccc(O)cc2)coc2cc(O[C@@H]3O[C@H](CO)[C@@H](O)[C@H](O)[C@H]3O)ccc12 [Daidzin] | 107 ± 9.1% |
| CCN(CC)C(=S)SSC(=S)N(CC)CC [Disulfiram] | 101 ± 1.1% |
| c1cc(-c2cnn3cc(-c4ccc(OCCN5CCCCC5)cc4)cnc23)ccn1 [Dorsomorphin] | 56.2 ± 9.3% |
| C[C@H]1c2cccc(O)c2C(=O)C2C(=O)[C@]3(O)C(=O)C(C(N)=O)C(=O)[C@@H](N(C)C)[C@@H]3[C@@H](O)[C@@H]21 (stereo not given in full) [Doxycycline] | 113 ± 5.6% |

same assay, conditions: 10 µM; 72 h; co-treatment: DMSO vehicle

| SMILES | cell viability |
| --- | --- |
| Cc1c(Cl)cccc1S(=O)(=O)Nc1nc(CC(=O)N2CCN(C)CC2)cs1 [BVT-2733] | 98.8 ± 1.6% |
| CCc1oc2ccccc2c1C(=O)c1cc(Br)c(O)c(Br)c1 [Benzbromarone] | 101.1 ± 0.99% |
| CCOC(=O)c1sc(NC(=O)c2ccco2)c(SC#N)c1C [CBR-5884] | 100.8 ± 0.41% |
| O=C(/C=C/c1ccc(O)c(O)c1)OCCc1ccccc1 [Caffeic acid phenethyl ester] | 33.3 ± 0.83% |
| CCCCCOC(=O)Nc1nc(=O)n([C@@H]2O[C@H](C)[C@@H](O)[C@H]2O)cc1F [Capecitabine] | 98.7 ± 3% |
| Cc1ccc(-c2cc(C(F)(F)F)nn2-c2ccc(S(N)(=O)=O)cc2)cc1 [Celecoxib] | 110.57 ± 0.073% |
| O=c1c(-c2ccc(O)cc2)coc2cc(O[C@@H]3O[C@H](CO)[C@@H](O)[C@H](O)[C@H]3O)ccc12 [Daidzin] | 99.7 ± 1.7% |
| CCN(CC)C(=S)SSC(=S)N(CC)CC [Disulfiram] | 98.66 ± 0.82% |
| c1cc(-c2cnn3cc(-c4ccc(OCCN5CCCCC5)cc4)cnc23)ccn1 [Dorsomorphin] | 63.4 ± 7.4% |
| C[C@H]1c2cccc(O)c2C(=O)C2C(=O)[C@]3(O)C(=O)C(C(N)=O)C(=O)[C@@H](N(C)C)[C@@H]3[C@@H](O)[C@@H]21 (stereo not given in full) [Doxycycline] | 114.8 ± 0.59% |

same assay, conditions: 10 µM; 72 h; co-treatment: GSK2194069 100 nM

| SMILES | cell viability |
| --- | --- |
| Cc1c(Cl)cccc1S(=O)(=O)Nc1nc(CC(=O)N2CCN(C)CC2)cs1 [BVT-2733] | 99.66 ± 0.36% |
| CCc1oc2ccccc2c1C(=O)c1cc(Br)c(O)c(Br)c1 [Benzbromarone] | 97.85 ± 0.96% |
| CCOC(=O)c1sc(NC(=O)c2ccco2)c(SC#N)c1C [CBR-5884] | 103 ± 3.9% |
| O=C(/C=C/c1ccc(O)c(O)c1)OCCc1ccccc1 [Caffeic acid phenethyl ester] | 33.1 ± 8% |
| CCCCCOC(=O)Nc1nc(=O)n([C@@H]2O[C@H](C)[C@@H](O)[C@H]2O)cc1F [Capecitabine] | 95.6 ± 11% |
| Cc1ccc(-c2cc(C(F)(F)F)nn2-c2ccc(S(N)(=O)=O)cc2)cc1 [Celecoxib] | 104 ± 3% |
| O=c1c(-c2ccc(O)cc2)coc2cc(O[C@@H]3O[C@H](CO)[C@@H](O)[C@H](O)[C@H]3O)ccc12 [Daidzin] | 101 ± 11% |
| CCN(CC)C(=S)SSC(=S)N(CC)CC [Disulfiram] | 102 ± 2.9% |
| c1cc(-c2cnn3cc(-c4ccc(OCCN5CCCCC5)cc4)cnc23)ccn1 [Dorsomorphin] | 63.4 ± 0.95% |
| C[C@H]1c2cccc(O)c2C(=O)C2C(=O)[C@]3(O)C(=O)C(C(N)=O)C(=O)[C@@H](N(C)C)[C@@H]3[C@@H](O)[C@@H]21 (stereo not given in full) [Doxycycline] | 108.3 ± 0.83% |

same assay, conditions: 10 µM; 72 h; co-treatment: pictilisib 100 nM

| SMILES | cell viability |
| --- | --- |
| Cc1c(Cl)cccc1S(=O)(=O)Nc1nc(CC(=O)N2CCN(C)CC2)cs1 [BVT-2733] | 97.9 ± 1.1% |
| CCc1oc2ccccc2c1C(=O)c1cc(Br)c(O)c(Br)c1 [Benzbromarone] | 98 ± 12% |
| CCOC(=O)c1sc(NC(=O)c2ccco2)c(SC#N)c1C [CBR-5884] | 88 ± 4.2% |
| O=C(/C=C/c1ccc(O)c(O)c1)OCCc1ccccc1 [Caffeic acid phenethyl ester] | 22.1 ± 7.5% |
| CCCCCOC(=O)Nc1nc(=O)n([C@@H]2O[C@H](C)[C@@H](O)[C@H]2O)cc1F [Capecitabine] | 113 ± 11% |
| Cc1ccc(-c2cc(C(F)(F)F)nn2-c2ccc(S(N)(=O)=O)cc2)cc1 [Celecoxib] | 125 ± 10% |
| O=c1c(-c2ccc(O)cc2)coc2cc(O[C@@H]3O[C@H](CO)[C@@H](O)[C@H](O)[C@H]3O)ccc12 [Daidzin] | 98.5 ± 12% |
| CCN(CC)C(=S)SSC(=S)N(CC)CC [Disulfiram] | 102 ± 15% |
| c1cc(-c2cnn3cc(-c4ccc(OCCN5CCCCC5)cc4)cnc23)ccn1 [Dorsomorphin] | 34 ± 3.1% |
| C[C@H]1c2cccc(O)c2C(=O)C2C(=O)[C@]3(O)C(=O)C(C(N)=O)C(=O)[C@@H](N(C)C)[C@@H]3[C@@H](O)[C@@H]21 (stereo not given in full) [Doxycycline] | 96.9 ± 6.5% |

system: SHI-1; test: cell viability (% survival relative to DMSO control, bortezomib = 0%); higher = less cytotoxic; conditions: 1 nM; 72 h
How it was run: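 Fifteen myeloid leukaemia cell lines were exposed to compounds at 1, 10, 100, 1000 or 10000 nM in 384-well plates for 72 h at 37 °C and 5% CO2. Viability was read by CellTiter-Glo luminescence and normalised, with vehicle as 100% and a 10 µM positive control as 0%. Values are percent survival averaged over duplicates.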

| SMILES | cell viability |
| --- | --- |
| Cc1c(Cl)cccc1S(=O)(=O)Nc1nc(CC(=O)N2CCN(C)CC2)cs1 [BVT-2733] | 110% |
| CCc1oc2ccccc2c1C(=O)c1cc(Br)c(O)c(Br)c1 [Benzbromarone] | 104% |
| CCOC(=O)c1sc(NC(=O)c2ccco2)c(SC#N)c1C [CBR-5884] | 90.4% |
| O=C(/C=C/c1ccc(O)c(O)c1)OCCc1ccccc1 [Caffeic acid phenethyl ester] | 95.7% |
| CCCCCOC(=O)Nc1nc(=O)n([C@@H]2O[C@H](C)[C@@H](O)[C@H]2O)cc1F [Capecitabine] | 102% |
| Cc1ccc(-c2cc(C(F)(F)F)nn2-c2ccc(S(N)(=O)=O)cc2)cc1 [Celecoxib] | 118% |
